In patent US20220227737A1, “NOVEL OXALYL PIPERAZINES ACTIVE AGAINST THE HEPATITIS B VIRUS (HBV)” (AiCuris GmbH & Co. KG, priority 2019, published 2022) one finds IC50, EC50 and CC50 data, which are given here for eleven compounds.

A word on the IC50: it is the concentration at which inhibition is half-maximal. By CC50 is commonly meant the concentration that lowers cell viability or growth by half. A high value points to better tolerance by the cells.

For data set [1], the target named is T1, C-terminal truncated core protein (HBV core dimer, BODIPY-FL labelled) (UniProt P03146).
T1 construct: fused on or other part: One added cysteine at position 150, labelled with BODIPY-FL maleimide; The C-terminal arginine-rich domain is absent
As to the kind of experiment: Biochemical capsid assembly assay (fluorescence quenching). The method in brief: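 E. coli-expressed HBV core 1–149 plus Cys150 dimer, BODIPY-FL-labelled, at 1.0–2.0 μM in 50 mM HEPES pH 7.5, 0.5% DMSO. 8-point compound series; assembly started with NaCl, fluorescence quenching (ex 477/em 525 nm) read after 6 min. EC50 by non-linear regression versus 2.5 M and 0 M NaCl controls.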

In data set [2] the test system is HBV. Briefly: HBV replication assay: HBV DNA from the supernatants of HepAD38 cells. In kind it is cell-based. The following applies: Hepatitis B virus, 144 h, HBV DNA in supernatant at day 6, read-out: Cell Activity. The method, then:
Determination of HBV DNA from the Supernatants of HepAD38 Cells
The anti-HBV activity was analysed in the stable transfected cell line HepAD38, which has been described to secrete high levels of HBV virion particles (Ladner et al., 1997). In brief, HepAD38 cells were cultured at 37° C. at 5% CO2 and 95% humidity in 200 μl maintenance medium, which was Dulbecco's modified Eagle's medium/Nutrient Mixture F-12 (Gibco, Karlsruhe), 10% fetal bovine serum (PAN Biotech Aidenbach) supplemented with 50 μg/ml penicillin/streptomycin (Gibco, Karlsruhe), 2 mM L-glutamine (PAN Biotech, Aidenbach), 400 μg/ml G418 (AppliChem, Darmstadt) and 0.3 μg/ml tetracycline. Cells were subcultured once a week in a 1:5 ratio, but were usually not passaged more than ten times. For the assay 60,000 cells were seeded in maintenance medium without any tetracycline into each well of a 96-well plate and treated with serial half-log dilutions of test compound. To minimize edge effects the outer 36 wells of the plate were not used but were filled with assay medium. On each assay plate six wells for the virus control (untreated HepAD38 cells) and six wells for the cell control (HepAD38 cells treated with 0.3 μg/ml tetracycline) were allocated, respectively. In addition, one plate set with reference inhibitors like BAY 41-4109, entecavir, and lamivudine instead of screening compounds were prepared in each experiment. In general, experiments were performed thrice in triplicates. At day 6 HBV DNA from 100 μl filtrated cell culture supernatant (AcroPrep Advance 96 Filter Plate, […] Supor membran, PALL GmbH, Dreieich) was automatically purified on the MagNa Pure LC instrument using the MagNA Pure 96 DNA and Viral NA Small Volume Kit (Roche Diagnostics, Mannheim) according to the instructions of the manufacturer. EC50 values were calculated from relative copy numbers of HBV DNA In brief, 5 μl of the 100 μl eluate containing HBV DNA were subjected to PCR LC480 Probes Master Kit (Roche) together with 1 μM antisense primer […], 0.5 μM sense primer […], 0.3 μM hybprobes […]-FL and LC640-[…]-PH (TIBMolBiol, Berlin) to a final volume of […]. The PCR was performed on the Light Cycler 480 real time system (Roche Diagnostics, Mannheim) using the following protocol: Pre-incubation for 1 min at 95° C., amplification: 40 cycles×(10 sec at 95° C., 50 sec at 60° C., 1 sec at 70° C.), cooling for 10 sec at 40° C. Viral load was quantitated against known standards using HBV plasmid DNA of pCH-9/3091 (Nassal et al., 1990, Cell 63: 1357-1363) and the LightCycler 480 SW 1.5 software (Roche Diagnostics, Mannheim) and EC50 values were calculated using non-linear regression with GraphPad Prism 6 (GraphPad Software Inc., La Jolla, USA).

The nature of data set [3]: Cell viability assay (AlamarBlue). To be noted: human, HepAD38 cells. Background: Alamar Blue is a resazurin reagent that responds to reducing activity.

T1 sequence (P03146 whole entry, the tested form may be a part): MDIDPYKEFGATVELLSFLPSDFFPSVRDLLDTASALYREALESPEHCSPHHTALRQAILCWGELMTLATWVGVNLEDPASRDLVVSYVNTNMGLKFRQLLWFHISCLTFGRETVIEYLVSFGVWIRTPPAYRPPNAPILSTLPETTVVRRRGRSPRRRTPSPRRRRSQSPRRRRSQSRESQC

`CC(C)(C)NC(=O)C(=O)N1CCN(C(=O)c2cc3ccccc3[nH]2)CC1` [Example 52, N-tert-butyl-2-[4-(1H-indole-2-carbonyl)piperazin-1-yl]-2-oxoacetamide] registered an IC50 in data set [1] of under 5 µM. Moreover, the EC50 in data set [2] is under 1 µM. Moreover, in data set [3], the CC50 at 6 days was over 100 µM.
Taken in the same sequence, the figures for `COC(C)CNC(=O)C(=O)N1CCN(C(=O)c2cc3c(F)cc(F)cc3[nH]2)CC1` (stereo not drawn) [Example 63, 2-(4-(4,6-difluoro-1H-indole-2-carbonyl)piperazin-1-yl)-N-(2-methoxypropyl)-2-oxoacetamide] were under 5 µM, under 1 µM and over 100 µM.
Taken in the same sequence, the figures for `COC1(CNC(=O)C(=O)N2CCN(C(=O)c3cc4c(F)cc(F)cc4[nH]3)CC2)CC1` [Example 65, 2-(4-(4,6-difluoro-1H-indole-2-carbonyl)piperazin-1-yl)-N-((1-methoxycyclopropyl)methyl)-2-oxoacetamide] were under 5 µM, under 1 µM and over 100 µM.
For `O=C(NCC1(CO)CC1)C(=O)N1CCN(C(=O)c2cc3c(F)cc(F)cc3[nH]2)CC1` [Example 55, 2-(4-(4,6-difluoro-1H-indole-2-carbonyl)piperazin-1-yl)-N-((1-(hydroxymethyl)cyclopropyl)methyl)-2-oxoacetamide] the same measures were under 5 µM, under 1 µM and over 100 µM.
For `CCCCNC(=O)C(=O)N1CCN(C(=O)c2cc3cccc(Br)c3[nH]2)CC1` [Example 5, 2-[4-(7-bromo-1H-indole-2-carbonyl)piperazin-1-yl]-N-butyl-2-oxoacetamide], the IC50 in data set [1] was under 5 µM. Besides, the EC50 in data set [2] was under 1 µM. The compound also returned a CC50 at 6 days in data set [3] of over 100 µM.
Taken in the same sequence, the figures for `CC(C)(CCO)CNC(=O)C(=O)N1CCN(C(=O)c2cc3c(F)cc(F)cc3[nH]2)CC1` [Example 61, 2-(4-(4,6-difluoro-1H-indole-2-carbonyl)piperazin-1-yl)-N-(4-hydroxy-2,2-dimethylbutyl)-2-oxoacetamide] were under 5 µM, under 1 µM and over 100 µM.
For `O=C(NC1CCCC1)C(=O)N1CCN(C(=O)c2cc3cccc(Br)c3[nH]2)CC1` [Example 7, 2-[4-(7-bromo-1H-indole-2-carbonyl)piperazin-1-yl]-N-cyclopentyl-2-oxoacetamide] the same measures were 5 to 10 µM, under 1 µM and over 100 µM.
Compound `CC(O)CNC(=O)C(=O)N1CCN(C(=O)c2cc3ccccc3[nH]2)CC1` (stereo not drawn) [Example 28, 2-(4-(1H-indole-2-carbonyl)piperazin-1-yl)-N-(2-hydroxypropyl)-2-oxoacetamide] had an IC50 in data set [1] of under 5 µM. Moreover, the EC50 in data set [2] is under 1 µM. This compound gave a CC50 at 6 days in data set [3] of over 100 µM.
For `COC1(CNC(=O)C(=O)N2CCN(C(=O)c3cc4ccccc4[nH]3)CC2)CC1` [Example 13, 2-(4-(1H-indole-2-carbonyl)piperazin-1-yl)-N-((1-methoxycyclopropyl)methyl)-2-oxoacetamide] the same measures were 5 to 10 µM, under 1 µM and over 100 µM.
Taken in the same sequence, the figures for `CC(C)(O)CNC(=O)C(=O)N1CCN(C(=O)c2cc3ccccc3[nH]2)CC1` [Example 32, 2-(4-(1H-indole-2-carbonyl)piperazin-1-yl)-N-(2-hydroxy-2-methylpropyl)-2-oxoacetamide] were under 5 µM, under 1 µM and over 100 µM.
In data set [1], `CCCCNC(=O)C(=O)N1CCN(C(=O)c2cc3c(F)cccc3[nH]2)CC1` [Example 26, N-butyl-2-(4-(4-fluoro-1H-indole-2-carbonyl)piperazin-1-yl)-2-oxoacetamide] had an IC50 of under 5 µM. Further, in data set [2], the EC50 was under 1 µM. In data set [3], this compound had a CC50 at 6 days of over 100 µM.
